Read-outs that look alike come from different tables or passages of the source.
Tests used:
[1] = Clinical chemistries in serum of rats; assay type: in vivo, male Sprague-Dawley rats; details: for response vs control in vivo at 0.3 % / response vs control in vivo at 0.1 %: po, 96 h
Text: A typical experiment consisted of 4-6 groups of rats (N=5 per group) with 1 group being a control which received no MDL compound and the other groups being treated with 0.3% MDL compound. Some of the compounds were either repeated at 0.3% or evaluated again at the lower dose of 0.1%. Male Sprague-Dawley rats, 50-100 g, (Harlan Laboratories, Indianapolis, Ind.) were housed in groups of 5, fed ad libitum water and Purina Rodent chow (#5002) with or without MDL compound as a dietary admixture for 4 days. Dietary admixtures (0.3%) were made by mixing 1.2 grams of an MDL compound with 400 grams of Purina rodent chow (#5002). The MDL compound was mixed with approximately 50 grams of food using a mortar and pestle. This was added to the remainder of the food and mixed for 3 hours on a rotary mixer. In the morning of day 5, non-fasted rats were anesthetized with carbon dioxide, and blood was collected by cardiac puncture. Rats were sacrificed by cervical dislocation. Body weights and liver weights were recorded in grams. Food consumption was recorded as grams.cndot.day^-1.cndot.rat^-1. Deaths were recorded as mortality. Aliquots of fresh serum were used for clinical chemistries, thiobarbituric acid reactive substances (TBARS) and conjugated diene measurements. Aliquots of serum (~0.5mL) and whole livers were frozen at -20° C. for compound and metabolite concentration determination at a later time.
Blood was allowed to clot at room temperature for 30 minutes. Serum was obtained after centrifugation for 10 min at 4° C. at 3000 rpm in a Beckman J-6M/E centrifuge with a JS-4.2 rotor. Fresh serum was analyzed by a COBAS MIRA S autoanalyzer (Roche Diagnostics) using Roche diagnostic reagents for the following clinical chemistry measurements: alkaline phosphatase (ALP, kit #44553), alanine transaminase (ALT, kit #42375), aspartate aminotransferase (AST, kit #42381), total cholesterol (CHOL, kit #44334), triglyceride (TG, kit #44120), and glucose (GLU, kit #44558). ALP, ALT, and AST were calculated as units/L. Cholesterol, triglycerides, and glucose were calculated as mg/dL.

[2] = tested on: oxidation of serum lipids; experiment: TBARS assay, serum of cholesterol-fed rabbits; assay type: in vivo, female New Zealand White rabbits; details: Oryctolagus cuniculus, po, read-out: TBARS, percent of control; for response vs control in vivo at 0.4 %: 168 h
Procedure, shortened: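 Female NZW rabbits ate 0.2% cholesterol chow with 0.4% dietary compound (some 0.26% or 0.6%) for 7 days (14 days at 0.6%); fasted serum was collected. Serum was oxidised with 5 mM CuSO4 solution, 37 °C 5 h, then reacted with thiobarbituric acid at 90 °C for 30 min. MDA nmol came from an A540 standard curve, versus untreated-rabbit serum.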

[3] = tested on: serum cholesterol, LDL, HDL, triglycerides; experiment: Serum lipids and lipoprotein cholesterol in cholesterol-fed female New Zealand White rabbits; assay type: in vivo; details: Oryctolagus cuniculus, po; for response vs control in vivo at 0.4 %: 168 h; for response vs control in vivo at 0.6 %: 336 h, diet 0.6%, 14 days
Procedure, shortened: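 Female New Zealand White rabbits fed 0.2% cholesterol chow sprayed with 0.4% compound (some at 0.26% or 0.6%) for 7 days (0.6% arm, 14 days). Fasted serum: total cholesterol and triglycerides enzymatically (mg/dL); VLDL/LDL/HDL separated by Sepharose 6HR gel-filtration HPLC, post-column cholesterol reagent at 37 °C, A500.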

[4] = Rattus norvegicus, read-out: CHOL (total cholesterol), percent of control
[5] = Rattus norvegicus, read-out: TRIG (triglycerides), percent of control
[6] = rat serum, diet 0.3%, 4 days, read-out: CHOL (total cholesterol), percent of control
[7] = rat serum, diet 0.3%, 4 days, read-out: TRIG (triglycerides), percent of control
[8] = rabbit serum, diet 0.4%, 7 days
[9] = rabbit serum, diet 0.4%, 7 days, read-out: HDL cholesterol, percent of control
[10] = rabbit serum, diet 0.4%, 7 days, read-out: LDL cholesterol, percent of control
[11] = rabbit serum, diet 0.4%, 7 days, read-out: TRIG (triglycerides), percent of control
[12] = rabbit serum, diet 0.4%, 7 days, read-out: chol tot. (total cholesterol), percent of control
[13] = rat serum, diet 0.1%, 4 days, read-out: CHOL (total cholesterol), percent of control
[14] = rat serum, diet 0.1%, 4 days, read-out: TRIG (triglycerides), percent of control

SMILES | response vs control in vivo at 0.3 % [1, 4] [%] | response vs control in vivo at 0.3 % [1, 5] [%] | ALP (alkaline phosphatase), percent of control ([1]; rat serum, diet 0.3%, 4 days) [%] | ALT (alanine aminotransferase), percent of control ([1]; rat serum, diet 0.3%, 4 days) [%] | AST (aspartate aminotransferase), percent of control ([1]; rat serum, diet 0.3%, 4 days) [%] | GLUC (glucose), percent of control ([1]; rat serum, diet 0.3%, 4 days) [%] | response vs control in vivo at 0.3 % [1, 6] [%] | response vs control in vivo at 0.3 % [1, 7] [%] | response vs control in vivo at 0.4 % [2, 8] [%] | response vs control in vivo at 0.4 % [3, 9] [%] | response vs control in vivo at 0.4 % [3, 10] [%] | response vs control in vivo at 0.4 % [3, 11] [%] | response vs control in vivo at 0.4 % [3, 12] [%] | response vs control in vivo at 0.1 % [1, 13] [%] | response vs control in vivo at 0.1 % [1, 14] [%] | ALP (alkaline phosphatase), percent of control ([1]; rat serum, diet 0.1%, 4 days) [%] | ALT (alanine aminotransferase), percent of control ([1]; rat serum, diet 0.1%, 4 days) [%] | AST (aspartate aminotransferase), percent of control ([1]; rat serum, diet 0.1%, 4 days) [%] | GLUC (glucose), percent of control ([1]; rat serum, diet 0.1%, 4 days) [%] | further results
CC(C)(C)c1cc(OC[Si](C)(C)c2ccccc2)cc(C(C)(C)C)c1OC(=O)CCC(=O)O [MDL 103,076, 2,6-Di-t-butyl-4-[(dimethylphenylsilyl)methyloxy]phenol succinic acid ester] | 114 | 77 | 201 | 132 | 99 | 99 | – | – | – | – | – | – | – | – | – | – | – | – | – | –
CC(C)(C)c1cc(SC[Si](C)(C)c2ccccc2)cc(C(C)(C)C)c1OC(=O)CCC(=O)O [MDL 103,141, 2,6-Di-t-butyl-4-[(dimethylphenylsilyl)methylthio]phenol sucinic acid ester] | 119 | 47 | 147 | 126 | 120 | 107 | – | – | – | – | – | – | – | – | – | – | – | – | – | –
CC(=O)Oc1c(C(C)(C)C)cc(OC[Si](C)(C)c2ccccc2)cc1C(C)(C)C [MDL 103,377, 2,6-Di-t-butyl-4-[(dimethylphenylsilyl)methyloxy]phenol acetic acid ester] | – | – | 147 | 145 | 149 | 102 | 93 | 85 | – | – | – | – | – | – | – | – | – | – | – | –
CC(C)(C)c1cc(OC[Si](C)(C)c2ccccc2)ccc1O [MDL 103,491, 2-t-Butyl-4-[(dimethylphenylsilyl)methyloxy]phenol] | – | – | 80 | 127 | 114 | 94 | 146 | 131 | 32 | 103 | 81 | 134 | 85 | 112 | 92 | 116 | 133 | 94 | 101 | response vs control in vivo at 0.6 % ([2]; 336 h, rabbit serum, diet 0.6%, 14 days): 18%; response vs control in vivo at 0.6 % ([3]; rabbit serum, read-out: TRIG (triglycerides), percent of control): 216%; response vs control in vivo at 0.6 % ([3]; rabbit serum, read-out: chol tot. (total cholesterol), percent of control): 139%
CN(C)c1ccc([Si](C)(C)COc2cc(C(C)(C)C)c(O)c(C(C)(C)C)c2)cc1 [MDL 104,556, 2,6-Di-t-butyl-4-[(4-N,N-dimethylaminophenyldimethylsilyl)methyloxy]phenol] | – | – | 112 | 106 | 101 | 113 | 119 | 95 | 70 | 116 | 53 | 81 | 47 | 96 | 74 | 112 | 125 | 107 | 102 | –
CC(C)(C)c1cc(OC[Si](C)(c2ccccc2)c2ccccc2)cc(C(C)(C)C)c1O [MDL 104,599, 2,6-Di-t-butyl-4-[(diphenylmethylsilyl)methloxy]phenol] | – | – | 110 | 91 | 76 | 111 | 94 | 100 | 79 | 105 | 71 | 64 | 76 | – | – | – | – | – | – | –
CC(C)(C)c1cc(OC[Si](C)(C)c2ccccc2)c(C(C)(C)C)cc1O [MDL 104,962, 2,5-Di-t-butyl-4-[(dimethylphenylsilyl)methyloxy]phenol] | – | – | 130 | 112 | 109 | 91 | 99 | 74 | 19 | 163 | 105 | 159 | 118 | – | – | – | – | – | – | –
Cc1cc(OC[Si](C)(C)c2ccccc2)c(C)c(C)c1O [MDL 105,314, 2,3,6-Trimethyl-4-[(dimethylphenylsdilyl)methloxy]phenol] | 110 | 78 | 154 | 113 | 76 | 115 | – | – | – | – | – | – | – | – | – | – | – | – | – | –
CC(=O)Oc1ccc(OC[Si](C)(C)c2ccccc2)cc1C(C)(C)C [MDL 105,443, 2-t-Butyl-4-[(dimethylphenylsilyl)methyloxy]phenol acetic acid ester] | – | – | 90 | 156 | 171 | 98 | 131 | 126 | 42 | 115 | 97 | 127 | 98 | 111 | 111 | 101 | 116 | 94 | 106 | –
CC(C)(C)c1cc(OC[Si](C)(C)c2ccc(C(F)(F)F)cc2)cc(C(C)(C)C)c1O [MDL 105,975, 2,6-Di-t-butyl-4-[(dimethyl-4-trifluoromethylphenylsilyl)methyloxy]phenol] | 122 | 107 | 105 | 106 | 122 | 106 | – | – | – | – | – | – | – | – | – | 112 | 96 | 89 | 110 | response vs control in vivo at 0.4 % [2]: 68%; response vs control in vivo at 0.4 % ([3]; read-out: HDL cholesterol, percent of control): 76%; response vs control in vivo at 0.4 % ([3]; read-out: LDL cholesterol, percent of control): 77%; response vs control in vivo at 0.4 % ([3]; read-out: TRIG (triglycerides), percent of control): 143%; response vs control in vivo at 0.4 % ([3]; read-out: chol tot. (total cholesterol), percent of control): 69%; response vs control in vivo at 0.1 % [1, 4]: 98%; response vs control in vivo at 0.1 % [1, 5]: 108%

Source: US5608095A, “Alkyl-4-silyl-phenols and esters thereof as antiatherosclerotic agents” (Hoechst Marion Roussel, Inc., priority 1996, dated 1997)
